According to the Deep4Chem optical property database:

Experiment: solvent given as SMILES

SMILES: Cc1ccc(-n2c3ccccc3c3cc(C=C(C#N)C#N)ccc32)cc1
- absorption maximum (in C1CCOC1): 407 nm
- absorption maximum (in CC#N): 402 nm
- absorption maximum (in CC(C)=O): 402 nm
- absorption maximum (in CCOC(C)=O): 400 nm
- absorption maximum (in CO): 402 nm
- absorption maximum (in CS(C)=O): 407 nm
- absorption maximum (in Cc1ccccc1): 406 nm
- absorption maximum (in ClC(Cl)Cl): 413 nm

SMILES: COc1ccc(N(c2ccc(OC)cc2)c2ccc(-c3ccc4c(c3)C(=O)c3ccccc3C4=O)cc2)cc1
- absorption maximum (in C1CCOC1): 477 nm
- absorption maximum (in CCCCCC): 468 nm
- absorption maximum (in CCOC(C)=O): 472 nm
- absorption maximum (in CCOCC): 472 nm
- absorption maximum (in Cc1ccccc1): 481 nm
- absorption maximum (in ClC(Cl)(Cl)Cl): 483 nm
- absorption maximum (in ClCCl): 485 nm

SMILES: COc1ccc(/C=C/C2=C3CCc4ccccc4C3=[O+][B-](F)(F)O2)cc1
- absorption maximum (in ClCCl): 467 nm

SMILES: CC(C)c1cc(C(C)C)c(B2c3cc(N4c5ccccc5Oc5ccccc54)ccc3N(c3ccccc3)c3ccc(N4c5ccccc5Oc5ccccc54)cc32)c(C(C)C)c1
- absorption maximum (in C1CCCCC1): 372.79 nm

SMILES: C[Si](c1ccc(-c2nc3ccccc3n2-c2ccccc2)cc1)(c1ccc(-c2nc3ccccc3n2-c2ccccc2)cc1)c1ccc(-c2nc3ccccc3n2-c2ccccc2)cc1
- absorption maximum (in ClCCl): 307 nm

SMILES: O=P1(c2ccccc2)C(c2ccc(C3=Cc4ccccc4P3(=O)c3ccccc3)cc2)=Cc2ccccc21 (stereo not drawn)
- absorption maximum (in C1CCOC1): 387 nm

SMILES: CCCN1C(=O)c2c3c(c4c(c2C1=O)CCc1cc(-c2ccc(N(C)C)cc2)c(OC)cc1-4)-c1cc(OC)c(-c2ccc(N(C)C)cc2)cc1CC3
- absorption maximum (in C1CCCCC1): 404 nm
- absorption maximum (in C1CCOC1): 409 nm
- absorption maximum (in CCOC(C)=O): 407 nm
- absorption maximum (in Cc1ccccc1): 412 nm

SMILES: C=CB1C=Cc2ccc3ccccc3c2N1
- absorption maximum (in C1CCCCC1): 355 nm

SMILES: O=C(O)c1ccc(C2=C(/C=C/c3[se]c4ccccc4[n+]3CCCCS(=O)(=O)[O-])CCC/C2=C\C=C2/[Se]c3ccccc3N2CCCCS(=O)(=O)[O-])cc1
- absorption maximum (in CO): 800 nm

SMILES: Cc1ccc2c(c1)C1(c3ccccc3Oc3ccccc31)c1cc(C)ccc1N2c1ccc(-c2nc(-c3ccccc3)cc(-c3ccccc3)n2)cc1
- absorption maximum (in Cc1ccccc1): 378 nm

SMILES: CCCCN1C(=O)C2=C(c3ccc(-c4ccccc4)cc3)NC(=O)C2=C1c1ccc(-c2ccccc2)cc1
- absorption maximum (in ClCCl): 485 nm

SMILES: O=c1ccc2ccccc2o1
- absorption maximum (in O): 306 nm

SMILES: c1ccc(Cc2c3ccc(=[N+]4CCCCC4)cc-3oc3cc(N4CCCCC4)ccc23)cc1
- absorption maximum (in ClCCl): 566 nm

SMILES: CCN1CCCc2cc3c(cc21)Oc1cc2c(cc1=N3)C(CS(=O)(=O)[O-])CC(C)(C)[N+]=2CCCC(=O)[O-] (stereo not drawn)
- absorption maximum (in O): 655 nm

SMILES: C(=C\c1ccncn1)/c1ccc(N(c2ccccc2)c2ccccc2)cc1
- absorption maximum (in C1CCOC1): 398 nm
- absorption maximum (in CC#N): 394 nm
- absorption maximum (in CCCCCCC): 392 nm
- absorption maximum (in CS(C)=O): 401 nm
- absorption maximum (in ClCCl): 400 nm

SMILES: CCCCCCCCOc1ccc(C#Cc2ccc3oc4ccccc4c3c2)c(OCCCCCCCC)c1
- absorption maximum (in ClCCl): 314 nm

SMILES: c1cc2ccc3[se]c4ccc5cccc6c(c1)c2c3c4c56
- absorption maximum (in ClC(Cl)Cl): 416.5 nm

SMILES: CC(=O)Nc1ccc(C2=C/C(=C\c3ccc(C#N)cc3)C(=O)N2)cc1
- absorption maximum (in C1COCCO1): 456 nm

SMILES: CN(C)c1ccc2cc3ccc(N(C)C)cc3nc2c1
- absorption maximum (in O): 500 nm

SMILES: CCCCCCOc1cc(/C=C/c2cc(OCCCCCC)c(/C=C/c3cc(OCCCCCC)c(C=C4C(=C(C#N)C#N)c5ccccc5C4=C(C#N)C#N)cc3OCCCCCC)cc2OCCCCCC)c(OCCCCCC)cc1C=C1C(=C(C#N)C#N)c2ccccc2C1=C(C#N)C#N
- absorption maximum (in ClCCl): 640 nm

SMILES: c1ccc(-c2nc(-c3ccccc3)nc(-c3ccc(N4c5ccccc5C5(c6ccccc64)c4ccccc4N(c4ccc(-c6nc(-c7ccccc7)nc(-c7ccccc7)n6)cc4)c4ccccc45)cc3)n2)cc1
- absorption maximum (in Cc1ccccc1): 400 nm

SMILES: COc1ccc(C#Cc2c3cc4ccccc4cc3c(C#Cc3ccc(OC)cc3)c3cc4ccccc4cc23)cc1
- absorption maximum (in ClCCl): 666 nm

SMILES: F[B-]1(F)n2ccnc2-c2cccc[n+]21
- absorption maximum (in C1CCCCC1): 298 nm
- absorption maximum (in C1CCOC1): 298 nm
- absorption maximum (in C1COCCO1): 297 nm
- absorption maximum (in CC#N): 295 nm
- absorption maximum (in CCCCCC): 297 nm
- absorption maximum (in CO): 293 nm
- absorption maximum (in ClC(Cl)Cl): 300 nm

SMILES: c1ccc(-c2csc(-c3ccncc3)n2)cc1
- absorption maximum (in CC#N): 370 nm
- absorption maximum (in CCO): 325 nm
- absorption maximum (in CN(C)C=O): 323 nm
- absorption maximum (in CS(C)=O): 325 nm
- absorption maximum (in ClCCl): 376 nm

SMILES: CCN(CC)c1ccc2cc(-c3csc(NC(C)=O)c3C#N)c(=O)oc2c1
- absorption maximum (in CO): 404 nm
- absorption maximum (in CS(C)=O): 394 nm
- absorption maximum (in Cc1ccccc1): 402 nm

SMILES: CC(C)(C)c1ccc2c(c1)c1cc(C(C)(C)C)ccc1n2-c1ccc(S(=O)(=O)c2cccc(S(=O)(=O)c3ccc(-n4c5ccc(C(C)(C)C)cc5c5cc(C(C)(C)C)ccc54)cc3)c2)cc1
- absorption maximum (in Cc1ccccc1): 348 nm

SMILES: Cc1cc2c3ccccc3oc2c2[nH]c3ccccc3c12
- absorption maximum (in ClCCl): 314 nm

SMILES: COCCC1=Cc2nc1ccc1[nH]c(cc1CCOC)c1nc(c(OC(C)=O)cc3[nH]c2cc3CCOC)C(CCOC)=C1
- absorption maximum (in Cc1ccccc1): 647 nm

SMILES: CCN1/C(=C\c2c(-c3ccc(N(C)C)cc3)c(=O)c2=O)C=Cc2ccccc21
- absorption maximum (in C1CCCCC1): 359 nm
- absorption maximum (in Cc1ccccc1): 362 nm
- absorption maximum (in ClCCl): 509 nm
